Here are results for seven compounds from PubChem BioAssay (NCI).

Some test systems named below: OVCAR-8 ovarian; HCT-116 colon; HCC-2998 colon; COLO 205 colon; MDA-MB-231 breast; HS 578T breast; HL-60(TB) leukemia; MALME-3M melanoma; SK-MEL-2 melanoma; IGROV1 ovarian.
What all share (test): NCI anticancer screen, dose series, 48 h

Values joined by “and” are separate entries in the source; they are usually repeats but may differ in a detail not shown here. Identical values can stand only once.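 Assay format: 96-well plates, 48-hour exposure. Abbreviation: GI50, concentration required for 50% inhibition of growth. TGI: concentration producing complete growth inhibition.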

Consider `CC[C@@]1(O)C(=O)NCc2c1cc1n(c2=O)Cc2cc3ccccc3nc2-1`, for which the GI50 in the test on OVCAR-8 ovarian is 2120 nM; with HCT-116 colon it was 2750 nM; with HCC-2998 colon, 74000 nM; in the test with COLO 205 colon, 39200 nM; with MDA-MB-231 breast, above 100000 nM; with HS 578T breast it was above 100000 nM. Further, the GI50 was 1330 nM in the test with HL-60(TB) leukemia, 83.9 µM in the test on MALME-3M melanoma, above 100000 nM in the test with SK-MEL-2 melanoma and 12100 nM with IGROV1 ovarian. Further, the TGI in the test on OVCAR-8 ovarian was above 44.8 µM; with HCT-116 colon, above 74.2 µM; in the test with HCC-2998 colon it was above 100 µM; in the test on COLO 205 colon, above 100 µM; in the test on MDA-MB-231 breast, above 100 µM; in the test on HS 578T breast, above 100 µM. In addition, the TGI was above 24 µM in the test with HL-60(TB) leukemia, above 100 µM in the test on MALME-3M melanoma, above 100 µM in the test with SK-MEL-2 melanoma and above 100 µM in the test on IGROV1 ovarian.
Take `Cn1nc(C(F)(F)F)c(-c2ccc(Cl)c(C(F)(F)F)c2)c1-c1ccc(OCc2ccc(Cl)cc2)cc1O`: the GI50 is 1730 nM in the test with OVCAR-8 ovarian; 1500 nM in the test on HCT-116 colon; 1880 nM in the test on HCC-2998 colon; 1410 nM in the test with COLO 205 colon; 1590 nM in the test on MDA-MB-231 breast; 1420 nM in the test with HS 578T breast. In addition, the GI50 was 1400 nM in the test with HL-60(TB) leukemia, 1.39 µM in the test on MALME-3M melanoma, 1410 nM in the test on SK-MEL-2 melanoma and 2180 nM with IGROV1 ovarian. Besides, the TGI in the test with OVCAR-8 ovarian came out at 6.37 µM; in the test with HCT-116 colon it was 5.46 µM; in the test on HCC-2998 colon it was 6.73 µM; in the test with COLO 205 colon, 4.45 µM; in the test on MDA-MB-231 breast it was 5.41 µM; in the test with HS 578T breast it was 8.98 µM. The TGI with HL-60(TB) leukemia amounted to 3.5 µM; with MALME-3M melanoma it was 4.96 µM; in the test on SK-MEL-2 melanoma, 4.52 µM; in the test on IGROV1 ovarian, 8.47 µM.
Take `COc1ccc(N2CCN(C(=O)c3ccccc3Nc3ccnc(C(F)(F)F)c3)CC2)cc1`: the GI50 is 40700 nM with OVCAR-8 ovarian; 37700 nM with HCT-116 colon; above 100000 nM in the test on HCC-2998 colon; 63000 nM in the test with COLO 205 colon; above 100000 nM in the test with MDA-MB-231 breast; 60600 nM with HS 578T breast. Also, the GI50 is 32300 nM with HL-60(TB) leukemia, above 100 µM in the test with MALME-3M melanoma, above 100000 nM with SK-MEL-2 melanoma and 13700 nM with IGROV1 ovarian. For the same compound, the TGI with OVCAR-8 ovarian, in the test with HCT-116 colon, with HCC-2998 colon, with COLO 205 colon, with MDA-MB-231 breast and in the test with HS 578T breast was above 100 µM throughout. Besides, the TGI with HL-60(TB) leukemia was above 100 µM; in the test with MALME-3M melanoma, above 100 µM; with SK-MEL-2 melanoma it was above 100 µM; in the test with IGROV1 ovarian it was 93.6 µM.
As for `C[C@]12O[C@H](C[C@]1(O)CO)n1c3ccccc3c3c4c(c5c6ccccc6n2c5c31)CNC4=O`, the GI50 with OVCAR-8 ovarian is 367 nM and 391 nM; with HCT-116 colon, 29.1 nM and 40.8 nM; in the test on HCC-2998 colon, 330 nM and 237 nM; in the test on COLO 205 colon it was 91.6 nM and 129 nM; in the test on MDA-MB-231 breast, 126 nM and 151 nM; in the test on HS 578T breast, 178 nM and 239 nM. The GI50 with HL-60(TB) leukemia was 233 nM and 92.8 nM; in the test with MALME-3M melanoma it was 0.0324 µM and 0.0298 µM; in the test on SK-MEL-2 melanoma it was 19.6 nM and < 11.7 nM; in the test on IGROV1 ovarian, 51.4 nM and 111 nM. The TGI in the test on OVCAR-8 ovarian was > 5.35 µM and 6.53 µM; in the test on HCC-2998 colon, 2.5 µM and 2.96 µM; in the test with COLO 205 colon, 0.5 µM and 0.87 µM; in the test on MDA-MB-231 breast, 2.82 µM and 3 µM; in the test on HS 578T breast it was 3.01 µM and 3.61 µM; with HL-60(TB) leukemia, > 2.31 µM and 1.23 µM. Further, the TGI in the test with MALME-3M melanoma is 1.35 µM and 1.27 µM; in the test with SK-MEL-2 melanoma, 3.73 µM and 1.78 µM; in the test on IGROV1 ovarian it was 3.67 µM and 4.9 µM.
Take `COc1ccc(C(=O)c2cc(OC)c(OC)c(OC)c2)cc1OC(C)=O`: the GI50 in the test on OVCAR-8 ovarian is 45.1 nM; with HCT-116 colon it was 29.7 nM; in the test with HCC-2998 colon, 40 nM; in the test on COLO 205 colon it was 786 nM; in the test on MDA-MB-231 breast it was 36.9 nM; with HS 578T breast, 23.5 nM. For the same compound, the GI50 in the test on HL-60(TB) leukemia is below 14.1 nM; with MALME-3M melanoma, 35.4 µM; with SK-MEL-2 melanoma, 84.8 nM; with IGROV1 ovarian, 272 nM. In addition, the TGI in the test on OVCAR-8 ovarian is above 100 µM; in the test with HCT-116 colon, above 100 µM; with HCC-2998 colon it was above 100 µM; in the test with COLO 205 colon it was 10.1 µM; in the test on MDA-MB-231 breast, above 100 µM; in the test with HS 578T breast it was above 100 µM. Besides, the TGI with HL-60(TB) leukemia is below 0.0228 µM; in the test with MALME-3M melanoma, above 100 µM; in the test with SK-MEL-2 melanoma, above 100 µM; with IGROV1 ovarian, above 100 µM.
For `CC1(C)N=C(N)N=C(N)N1c1cccc(C#N)c1`, the GI50 in the test with OVCAR-8 ovarian is 599 nM; in the test with HCT-116 colon, 364 nM; in the test on HCC-2998 colon it was 7110 nM; with COLO 205 colon it was 31000 nM; with MDA-MB-231 breast it was above 100000 nM; in the test on HS 578T breast it was 71600 nM. Also, the GI50 in the test on HL-60(TB) leukemia was 3460 nM; with MALME-3M melanoma it was 16.7 µM; with SK-MEL-2 melanoma, 8990 nM; in the test on IGROV1 ovarian, 6700 nM. Moreover, the TGI in the test with OVCAR-8 ovarian, in the test with HCT-116 colon, in the test with HCC-2998 colon, in the test with COLO 205 colon, with MDA-MB-231 breast and in the test with HS 578T breast was above 100 µM throughout. The TGI with HL-60(TB) leukemia, in the test on MALME-3M melanoma, with SK-MEL-2 melanoma and in the test on IGROV1 ovarian was above 100 µM in each case.
Consider `C/C(=C\c1ccc(Cl)cc1)C(C)(C)C(=O)O`, for which the TGI with OVCAR-8 ovarian, in the test on HCT-116 colon, in the test with HCC-2998 colon, with COLO 205 colon, in the test on MDA-MB-231 breast and in the test on HS 578T breast was above 100 µM each time. The TGI with HL-60(TB) leukemia, with MALME-3M melanoma, with SK-MEL-2 melanoma and with IGROV1 ovarian was above 100 µM throughout.
